Consider one molecule from patent US5279811A, “Ester-substituted diaminedithiols and radiolabeled complexes thereof” (The Du Pont Merck Pharmaceutical Company, priority 1988, dated 1994).

The nature of this series: solubility. The class given is physicochemical. The settings on record: all solvents except aqueous base.

`O=C(O)C(CS)NCCNC(CS)C(=O)O` [N,N'-1,2-ethylenediylbis-L-cysteine]: the solubility result is given as “insoluble in all solvents except aqueous base”.
